Source: paper PMC6556873, “Rapid Covalent-Probe Discovery by Electrophile-Fragment Screening” (Journal of the American Chemical Society, 2019)
Read-outs that look alike come from different tables or passages of the source.

Tests used:
BSA = biological target: T1, BSA (Bos taurus, UniProt P02769); design: Intact protein LC/MS covalent labelling, fragments in pools of five, 200 uM each, 4 °C; details: 24 h, 4 °C, pool of five; 200 µM; covalent
T1 construct: gene ALB

NUDT7 = biological target: T2, NUDT7 (Homo sapiens, UniProt P0C024); design: Intact protein LC/MS covalent labelling, fragments in pools of five, 200 uM each, 4 °C; details: 24 h, 4 °C, pool of five; 200 µM; covalent
T2 construct: residues 14-235, E. coli, pNIC28-Bsa4, N-terminal His6 tag removed by TEV, construct 26672 Da
T2 sequence (P0C024 14-235): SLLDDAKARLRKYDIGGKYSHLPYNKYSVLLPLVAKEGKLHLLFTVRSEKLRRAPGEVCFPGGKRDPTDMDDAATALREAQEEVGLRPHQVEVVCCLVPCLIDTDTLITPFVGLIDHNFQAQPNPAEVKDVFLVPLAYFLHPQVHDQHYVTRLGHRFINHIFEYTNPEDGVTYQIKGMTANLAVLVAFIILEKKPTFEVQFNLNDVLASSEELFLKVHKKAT

PCAF = biological target: T3, PCAF (Homo sapiens, UniProt Q92831); design: Intact protein LC/MS covalent labelling, fragments in pools of five, 200 uM each, 4 °C; details: 24 h, 4 °C, pool of five; 200 µM; covalent
T3 construct: gene KAT2B
T3 sequence (Q92831 whole entry, the tested form may be a part): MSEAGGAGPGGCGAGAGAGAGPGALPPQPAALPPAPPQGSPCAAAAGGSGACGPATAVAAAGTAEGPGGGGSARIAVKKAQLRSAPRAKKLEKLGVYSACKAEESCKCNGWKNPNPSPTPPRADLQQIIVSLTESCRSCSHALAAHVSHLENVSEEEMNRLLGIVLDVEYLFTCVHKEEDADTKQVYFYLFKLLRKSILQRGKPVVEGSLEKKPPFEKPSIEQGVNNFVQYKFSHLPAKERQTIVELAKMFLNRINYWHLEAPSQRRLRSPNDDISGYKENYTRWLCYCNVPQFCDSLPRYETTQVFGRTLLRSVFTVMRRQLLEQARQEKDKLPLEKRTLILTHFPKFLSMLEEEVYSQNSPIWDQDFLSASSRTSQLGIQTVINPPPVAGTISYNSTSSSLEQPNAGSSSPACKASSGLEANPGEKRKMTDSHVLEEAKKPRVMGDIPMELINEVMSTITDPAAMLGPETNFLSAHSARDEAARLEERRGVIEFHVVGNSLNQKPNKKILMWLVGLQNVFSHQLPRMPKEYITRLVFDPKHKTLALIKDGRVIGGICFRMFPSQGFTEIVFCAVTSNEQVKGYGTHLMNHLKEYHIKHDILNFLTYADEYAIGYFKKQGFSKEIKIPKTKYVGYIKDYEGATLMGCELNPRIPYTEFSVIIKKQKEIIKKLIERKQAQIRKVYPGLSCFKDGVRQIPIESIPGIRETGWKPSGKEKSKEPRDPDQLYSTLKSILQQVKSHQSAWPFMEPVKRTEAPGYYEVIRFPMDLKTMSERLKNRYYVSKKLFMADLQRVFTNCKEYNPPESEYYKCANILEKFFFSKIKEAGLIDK

NNMT (hNNMT) = biological target: T4, NNMT (hNNMT) (Homo sapiens, UniProt P40261); design: Intact protein LC/MS covalent labelling, fragments in pools of five, 200 uM each, 4 °C; details: 24 h, 4 °C, pool of five; 200 µM; covalent
T4 construct: wild type, N-terminal His6 tag kept (no cleavage described), E. coli, construct 31248 Da
T4 sequence (P40261 1-264): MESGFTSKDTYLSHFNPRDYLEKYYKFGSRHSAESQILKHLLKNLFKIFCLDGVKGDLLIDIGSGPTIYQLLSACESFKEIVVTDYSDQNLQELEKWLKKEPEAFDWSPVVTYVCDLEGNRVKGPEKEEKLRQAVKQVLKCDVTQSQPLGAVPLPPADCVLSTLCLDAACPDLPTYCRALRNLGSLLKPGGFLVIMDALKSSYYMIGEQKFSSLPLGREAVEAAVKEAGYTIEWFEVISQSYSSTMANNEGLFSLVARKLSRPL

OTUB2 (OTUB2A) = biological target: T5, OTUB2 (OTUB2A) (Homo sapiens, UniProt Q96DC9); design: Intact protein LC/MS covalent labelling, fragments in pools of five, 200 uM each, 4 °C; details: 24 h, 4 °C, pool of five; 200 µM; covalent
T5 construct: full length residues 1-234, E. coli BL21(DE3)-R3, His tag removed by TEV, construct 27312 Da
T5 sequence (Q96DC9 1-234): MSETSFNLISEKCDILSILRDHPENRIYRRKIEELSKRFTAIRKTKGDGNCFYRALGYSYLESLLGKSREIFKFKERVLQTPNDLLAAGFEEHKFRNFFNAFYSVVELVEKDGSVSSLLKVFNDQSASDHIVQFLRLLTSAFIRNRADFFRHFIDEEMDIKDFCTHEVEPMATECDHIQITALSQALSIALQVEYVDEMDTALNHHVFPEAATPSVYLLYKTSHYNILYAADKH

in vitro [1] = experiment: in vitro; design: species or system HB2, CCD841; details: human, hek293 cells
in vitro [2] = experiment: in vitro; design: species or system CCD841, HEK293; details: human, hb2 cells, read-out: HB-2 Cells Viability (%)
in vitro [3] = experiment: in vitro; design: species or system HB2, HEK293; details: human, ccd841 cells

T1 sequence (P02769 whole entry, the tested form may be a part): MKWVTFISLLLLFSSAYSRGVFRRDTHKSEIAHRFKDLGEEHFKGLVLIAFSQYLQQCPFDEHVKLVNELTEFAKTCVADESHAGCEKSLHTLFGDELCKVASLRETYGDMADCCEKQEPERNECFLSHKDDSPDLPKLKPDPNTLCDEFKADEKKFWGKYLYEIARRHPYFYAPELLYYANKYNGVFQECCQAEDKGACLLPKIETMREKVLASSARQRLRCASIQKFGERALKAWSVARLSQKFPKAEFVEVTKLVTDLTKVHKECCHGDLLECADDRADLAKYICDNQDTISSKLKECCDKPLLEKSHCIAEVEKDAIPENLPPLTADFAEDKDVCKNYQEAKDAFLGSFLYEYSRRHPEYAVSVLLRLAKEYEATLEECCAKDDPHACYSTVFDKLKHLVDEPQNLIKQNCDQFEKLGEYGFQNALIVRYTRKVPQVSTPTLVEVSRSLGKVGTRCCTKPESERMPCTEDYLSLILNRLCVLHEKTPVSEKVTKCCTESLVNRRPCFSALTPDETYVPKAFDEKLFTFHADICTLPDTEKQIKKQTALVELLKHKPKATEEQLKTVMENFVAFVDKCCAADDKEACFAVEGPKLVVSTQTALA

Row | BSA (BSA) | NUDT7 (NUDT7) | PCAF (PCAF) | NNMT (NNMT (hNNMT)) | OTUB2 (OTUB2 (OTUB2A)) | SMILES | viability at 48 h, 10 µM (in vitro [1]) | viability at 48 h, 10 µM (in vitro [2]) | viability at 48 h, 10 µM (in vitro [3])
1 | 0 | 0 | 0 | 0 | 0 | COc1ccccc1C(=O)NC(=O)CCl [PCM-0102574] | 118% | 104% | 127%
2 | 0 | 0 | 0 | 0 | 0 | Cl.O=C(CCl)NCc1ccccn1 [PCM-0102950] | 97.4% | 100% | 109%
3 | 0.09 | 0 | 0 | 0 | 0 | C=CC(=O)N1CCCC(c2ncc(C(F)(F)F)[nH]2)C1 (centres unmarked) [PCM-0102527] | 109% | 98.6% | 129%
4 | 0 | 0.51 | 0 | 0 | 0 | C=CC(=O)Nc1ccccc1C(=O)OC [PCM-0102967] | 68.8% | 90.2% | 81%
5 | 0 | 0.35 | 0 | 0.15 | 0 | O=C(CCl)N1CCN(c2ccccc2Cl)CC1 [PCM-0102297] | 3.9% | 2.3% | 52%
6 | 0 | 0 | 0 | 0 | 0 | CN(C)C(=O)CNC(=O)CCl [PCM-0102365] | 95.6% | 103% | 100%
7 | 0 | 1 | 0 | 1 | 0.16 | COc1cccc2sc(NC(=O)CCl)nc12.Cl [PCM-0103067] | 47.6% | 32.2% | 48.9%
8 | 0 | 0 | 0 | 0 | 0 | C=CC(=O)NC1CCN(c2ccccc2C(F)(F)F)C1 (centres unmarked) [PCM-0102731] | 69.7% | 100% | 104%
9 | 0 | 0 | 0 | 0 | 0 | O=C(CCl)Nc1cccnc1Cl [PCM-0102274] | 81.4% | 84.4% | 88.8%
10 | 0 | 0 | 0 | 0 | 0 | C=CC(=O)N1CCN(C(=O)Nc2ccc(C)c(Cl)c2)CC1 [PCM-0102604] | 91.5% | 74.6% | 122%
11 | 0 | 0 | 0 | 0 | 0 | C=CC(=O)NC(=O)Nc1ccccc1 [PCM-0102883] | 4% | 5.4% | 17.8%
12 | 0 | 0 | 0 | 0 | 0 | C=CC(=O)N1CC(c2ccccc2)C2COCCC21 (centres unmarked) [PCM-0102687] | 114% | 103% | 105%
13 | 0 | 0.27 | 0 | 0.78 | 0.14 | Cc1ccc(NC(=O)CCl)cc1Br [PCM-0102955] | 38.3% | 41.5% | 71.2%
14 | 0 | 0 | 0 | 0 | 0.33 | CS(=O)(=O)c1cccc(NC(=O)CCl)c1 [PCM-0102407] | 1.4% | 26.4% | 47%
15 | 0 | 0.13 | 0 | 0 | 0.14 | C#Cc1cccc(NC(=O)NC(=O)CCl)c1 [PCM-0102813] | 73.2% | 74.1% | 82.2%
16 | 0 | 0 | 0 | 0 | 0 | CN(Cc1cccc(F)c1)C(=O)CCl [PCM-0102747] | 46.1% | 64.5% | 73.1%
17 | 0 | 0 | 0 | 0.14 | 0 | C=CC(=O)N1CC(S(=O)(=O)CC)C1 [PCM-0102442] | 77.7% | 94.8% | 100%
18 | 0 | 0.09 | 0 | 0 | 0 | N#CC1(NC(=O)CCl)CCC1 [PCM-0102854] | 93.1% | 90% | 81.1%
19 | 0 | 0 | 0 | 0.87 | 0.64 | O=C(CCl)Nc1oncc1-c1ccccc1 [PCM-0102746] | 73.3% | 72.1% | 71.8%
20 | 0 | 0 | 0 | 0 | 0.29 | NS(=O)(=O)c1ccc(NC(=O)CCl)cc1 [PCM-0102807] | 8% | 53.8% | 56.9%
21 | 0 | 0.08 | 0 | 0 | 0 | N#CC1(NC(=O)CCl)CCCCC1 [PCM-0102993] | 66% | 87.6% | 83.3%
22 | 0 | 0 | 0 | 0.38 | 0 | N#CSc1ccc(NC(=O)CCl)c(Cl)c1 [PCM-0102506] | 51.9% | 20.6% | 33.4%
23 | 0 | 0.4 | 0 | 0.18 | 0 | COC(=O)c1c(NC(=O)CCl)sc(C)c1C [PCM-0102322] | 33.3% | 62.5% | 80%
24 | 0 | 0 | 0 | 0 | 0 | O=C(CCl)NC(=O)c1ccc[nH]1 [PCM-0102795] | 149% | 96.2% | 100%
25 | 0 | 0 | 0 | 0 | 0 | O=C(CCl)NC(=O)NCC1COc2ccccc2O1 (centres unmarked) [PCM-0102092] | 7.6% | 49% | 33.4%
